Assay results reported in patent publication US20160075689A1, “POLYMERASE, ENDONUCLEASE, AND HELICASE INHIBITORS AND METHODS OF USING THEREOF” (THE BOARD OF TRUSTEES OF THE UNIVERSITY OF ARKANSAS, priority 2013, published 2016).
Values joined by “and” are separate entries in the source; they are usually repeats but may differ in a detail not shown here. Equal values may be shown once.

Columns and labels:
Type in all cases: biochemical
[1] = molecular target: T1, DNase I (Homo sapiens, UniProt P24855); assay: Endonuclease screening assay, specificity
T1 sequence (P24855 23-282): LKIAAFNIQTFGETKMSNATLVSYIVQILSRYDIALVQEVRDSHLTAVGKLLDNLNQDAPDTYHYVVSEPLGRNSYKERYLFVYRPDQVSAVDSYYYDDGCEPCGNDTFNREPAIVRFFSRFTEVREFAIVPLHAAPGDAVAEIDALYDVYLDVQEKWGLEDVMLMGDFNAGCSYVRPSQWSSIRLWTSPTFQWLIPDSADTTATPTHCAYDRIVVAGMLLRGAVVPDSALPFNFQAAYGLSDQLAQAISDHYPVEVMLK
Excerpt: (§1) Specificity of a potential inhibitor is important for any in vitro or in vivo application, and generally defines the usefulness of an inhibitor. To determine specificity of the inhibitors for the two EndoG inhibitors, PNR-3-80 and PNR-3-82, their IC50 values for EndoG were compared using the screening assay with the IC50 values for two other endonucleases, DNase I and DNAse II (FIG. 11). These endonucleases were chosen because they represent the majority of endonuclease activity in most mammalian cells and because of their availability as pure enzymes.
(§2) A reaction mixture was prepared in each well of a white 96-well plate (Costar, Corning, N.Y.) as follows: 0.25 μM Cy5.5-labeled oligonucleotide (described in US provisional patent filed Oct. 19, 2012, Ser. No. 61/716,097) 0.3 mM MgCl2, 10 mM Tris-HCl, pH 7.4, 1 μl DMSO containing 5 or 50 ng of test compound, and nuclease-free water for a total reaction volume of 100 μl. The background (negative control) and uninhibited EndoG samples were measured using DMSO only, or DMSO containing recombinant EndoG (4 μg/ml), respectively. After addition of EndoG, fluorescence intensity was kinetically measured on a Bio-Tek Synergy 4.0 plate reader at 37° C. and mean velocity (mRFU/min) within 20 min was automatically calculated by the plate reader. The background was subtracted prior to the calculation of EndoG activity (%). The percent of EndoG activity was calculated from the mean velocity of a compound divided by the mean velocity of DMSO with recombinant EndoG, and the obtained value multiplied by 100.

[2] = molecular target: T2, DNase II (Homo sapiens, UniProt O00115); assay: Endonuclease screening assay, specificity
T2 sequence (O00115 19-360): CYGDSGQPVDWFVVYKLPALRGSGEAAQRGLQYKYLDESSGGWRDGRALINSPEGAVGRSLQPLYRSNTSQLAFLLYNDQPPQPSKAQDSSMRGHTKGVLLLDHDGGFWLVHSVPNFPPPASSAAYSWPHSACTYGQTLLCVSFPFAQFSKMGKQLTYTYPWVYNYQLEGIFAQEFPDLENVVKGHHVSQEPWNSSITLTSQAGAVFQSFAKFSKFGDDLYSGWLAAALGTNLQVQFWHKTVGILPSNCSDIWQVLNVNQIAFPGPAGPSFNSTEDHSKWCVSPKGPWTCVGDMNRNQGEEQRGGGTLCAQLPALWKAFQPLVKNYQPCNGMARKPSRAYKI
Excerpt: as §1, §2

[3] = tested on: SOD; assay: SOD activity in NRK-52E cell extract; settings: 0.1 μM and 10 μM
Experimental: As a follow up to Example 8, the effects of the EndoG inhibitors PNR-3-80 and PNR-3-82, at 0.1 μM and 10 μM each, on the activities of four other enzymes including RNase A, protease, LDH, and SOD in NRK-52E cell extract were examined. NRK-52E cells were grown to ˜80% confluence in […]. The medium was aspirated and the cells were rinsed with ice cold 1×PBS, pH 7.4. The cells were lysed in 50 mM Tris-HCl, pH 7.4, 150 mM NaCl, 1% Triton X-100 for 10 min on ice and then briefly sonicated. Cell debris was removed by centrifugation at 13,000×g for 10 min at 4° C. The supernatant was collected and stored at −80° C. until use. LDH, Protease, Superoxide dismutase (SOD), and Ribonuclease A (RNase A) activities were measured by using CytoTox 96® Non-Radioactive Cytotoxicity Assay kit (Promega, Madison, Wis.), Protease Fluorescent Detection kit (Sigma-Aldrich, Saint Louis, Mo.), SOD determination kit (Sigma-Aldrich, Saint Louis, Mo.), and Ribonuclease A Detection kit (Sigma-Aldrich, Saint Louis, Mo.), respectively, according to the manufacturer's instructions.

[4] = molecular target: T3, HCV NS3 helicase (Hepatitis C virus genotype 1b, UniProt P26663); assay: Fluorescence-based helicase assay; settings: IC50 for inhibition of NS3 helicase, mean ± standard deviation of three data sets
T3 construct: analyze the helicase activity of NS3 helicase in the presence of the compounds; made in house
Experimental: A library of compounds was screened using a previously validated quantitative assay that measures helicase activity over time. The assay relies upon helicase-catalyzed displacement of a fluorescently-labeled oligonucleotide (FIG. 13A). The concentration of enzyme and compounds used was 250 nM and 20 μM respectively. The experiments were performed in triplicate. […] Three potential helicase inhibitors were identified using the fluorescence based assay. […] The inhibitor compounds identified in our screen were ITBA-3-79, ITBA-3-82 and ITBA-3-85 (FIG. 14A). […] The IC50 value for ITBA-3-79, ITBA-3-82 and ITBA-3-85-mediated inhibition of NS3 helicase ranged˜20 μM (FIG. 14C). The ATPase activity of NS3 (50 μM) was analyzed in the presence of ITBA-3-79, ITBA-3-82 and ITBA-3-85 using a coupled spectrophotometric assay (Raney and Benkovic 1995, (FIG. 15). The protease activity of NS3 was analyzed in the presence of ITBA-3-79, ITBA-3-82 and ITBA-3-85 by using 50 nM NS3-4A and 100 nM substrate (Ac-Asp-Glu-Asp-EDANS-Glu-Glu-Abu-L-Lactoyl-Ser-Lys DABCYL-NH2, FIG. 15. The NS3 helicase activity was analyzed in the presence of 25 μM ITBA-3-79, ITBA-3-82 and ITBA-3-85 (FIG. 16).
A fluorescence based quantitative assay that measures helicase activity over time was employed to screen the compounds. The concentration of enzyme and compounds used was 250 nM and 20 μM respectively. Helicase catalyzes the unwinding of a FAM-labeled dsDNA and the resulting increase in fluorescence is plotted (λex-485 nm; λem, −528 nm). The slope of the initial part of the plot was used to calculate the percentage helicase activity. […] The IC50 value for ITBA-3-79, ITBA-3-82 and ITBA-3-85-mediated inhibition of NS3 helicase was determined using the same assay.

T3 sequence (P26663 1027-1657): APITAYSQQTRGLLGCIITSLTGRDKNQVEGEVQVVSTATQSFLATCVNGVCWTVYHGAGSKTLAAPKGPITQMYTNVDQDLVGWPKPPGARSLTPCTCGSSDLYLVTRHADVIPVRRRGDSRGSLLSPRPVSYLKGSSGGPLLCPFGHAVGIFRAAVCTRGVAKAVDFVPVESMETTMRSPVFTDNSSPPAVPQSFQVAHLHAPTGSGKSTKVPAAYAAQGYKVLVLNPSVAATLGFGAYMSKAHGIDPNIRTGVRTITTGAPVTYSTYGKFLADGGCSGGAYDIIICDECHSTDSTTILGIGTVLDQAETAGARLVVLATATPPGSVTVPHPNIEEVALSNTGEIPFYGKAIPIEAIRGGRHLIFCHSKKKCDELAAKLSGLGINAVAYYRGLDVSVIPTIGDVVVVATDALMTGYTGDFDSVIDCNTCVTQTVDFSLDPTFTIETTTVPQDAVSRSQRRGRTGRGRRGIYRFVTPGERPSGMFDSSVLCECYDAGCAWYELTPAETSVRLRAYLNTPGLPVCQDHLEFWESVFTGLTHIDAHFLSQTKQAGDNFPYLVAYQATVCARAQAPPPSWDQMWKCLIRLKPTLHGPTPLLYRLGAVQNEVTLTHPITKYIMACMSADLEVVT

Structure (SMILES): COc1ccc2c(c1)c(C=C1C(=O)NC(=S)NC1=O)cn2C(=O)c1ccc2ccccc2c1 [PNR-3-82]
- IC50 [1]: 63.3 µM
- effect on DNase II activity [2]: did not have any effect
- SOD activity [3]: none of the two tested compounds had any inhibiting activity
- IC50 [4]: ~20 µM and 21.4 µM
